Reference: PubChem BioAssay AID2060609 (Molecular Pharmacology Branch, DTP, NCI, 2025)

System: 855422-203-R-J1-PDC complex spheroids, viability
Experiment: Anticancer human tumor 855422-203-R-J1-PDC patient-derived bladder carcinoma cell line growth inhibition [CLK]
Settings: for IC50: curve of first compound; for viability, T/C: stronger effect = lower value
How it was run: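 Patient-derived tumor cells grown as complex spheroids with HUVEC endothelial cells and mesenchymal stem cells, treated with drug combinations. Concentrations descend in half-log steps from near clinical Cmax, or from 10 microM if Cmax unknown.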

[1] = second compound 0.0316 µM, first compound 0.0316 µM
[2] = second compound 0.0316 µM, first compound 0.1 µM
[3] = second compound 0.0316 µM, first compound 0.316 µM
[4] = second compound 0.0316 µM, first compound 1 µM
[5] = second compound 0.1 µM, first compound 0.0316 µM
[6] = second compound 0.1 µM, first compound 0.1 µM
[7] = second compound 0.1 µM, first compound 0.316 µM
[8] = second compound 0.1 µM, first compound 1 µM
[9] = second compound 0.316 µM, first compound 0.0316 µM
[10] = second compound 0.316 µM, first compound 0.1 µM
[11] = second compound 0.316 µM, first compound 0.316 µM
[12] = second compound 0.316 µM, first compound 1 µM
[13] = second compound 1 µM, first compound 0.0316 µM
[14] = second compound 1 µM, first compound 0.1 µM
[15] = second compound 1 µM, first compound 0.316 µM
[16] = second compound 1 µM, first compound 1 µM
[17] = second compound 3.16 µM, first compound 0.0316 µM
[18] = second compound 3.16 µM, first compound 0.1 µM
[19] = second compound 3.16 µM, first compound 0.316 µM
[20] = second compound 3.16 µM, first compound 1 µM
[21] = second compound 10 µM, first compound 0.0316 µM
[22] = second compound 10 µM, first compound 0.1 µM
[23] = second compound 10 µM, first compound 0.316 µM
[24] = second compound 10 µM, first compound 1 µM
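Also: spheroids exposed to drugs for seven days before readout.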
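For viability, T/C in this document: 100% = DMSO vehicle control wells.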

Work on `CC(=O)O[C@H]1C(=O)[C@@]2(C)[C@H]([C@H](OC(=O)c3ccccc3)[C@]3(O)C[C@H](OC(=O)[C@H](O)[C@@H](NC(=O)c4ccccc4)c4ccccc4)C(C)=C1C3(C)C)[C@]1(OC(C)=O)CO[C@@H]1C[C@@H]2O` + CN1CCN(c2cc(C(=O)Nc3cc4cc(-c5cnn(C)c5)ccc4cn3)ccn2)CC1 yielded an IC50 (second compound 0.0316 µM) of under 31.6 nM, an IC50 (second compound 0.1 µM) of under 31.6 nM and an IC50 (second compound 0.316 µM) of under 31.6 nM. For the same compound, the IC50 (second compound 1 µM) was under 31.6 nM, the IC50 (second compound 3.16 µM) was under 31.6 nM and the IC50 (second compound 10 µM) was under 31.6 nM. The viability, T/C [1] was 8.75%, the viability, T/C [2] was 7.02% and the viability, T/C [3] was 5.26%. It also gave a viability, T/C [4] of 9.34%, a viability, T/C (second compound 0.0316 µM, first compound 3.16 µM) of 9.46% and a viability, T/C (second compound 0.0316 µM, first compound 10 µM) of 10.8%. The viability, T/C [5] was 8.5%, the viability, T/C [6] was 7.8% and the viability, T/C [7] was 6.23%. For the same compound, the viability, T/C [8] was 6.41%, the viability, T/C (second compound 0.1 µM, first compound 3.16 µM) was 8.14% and the viability, T/C (second compound 0.1 µM, first compound 10 µM) was 8.37%. For the same compound, the viability, T/C [9] was 4.94%, the viability, T/C [10] was 5.41% and the viability, T/C [11] was 5.22%. The viability, T/C [12] was 4.69%, the viability, T/C (second compound 0.316 µM, first compound 3.16 µM) was 4.5% and the viability, T/C (second compound 0.316 µM, first compound 10 µM) was 5.61%. The viability, T/C [13] was 0.21%, the viability, T/C [14] was 0.19% and the viability, T/C [15] was 0.18%. It also gave a viability, T/C [16] of 1.39%, a viability, T/C (second compound 1 µM, first compound 3.16 µM) of 1.11% and a viability, T/C (second compound 1 µM, first compound 10 µM) of 0.14%. The viability, T/C [17] was 0.45%, the viability, T/C [18] was 0.41% and the viability, T/C [19] was 0.38%. The viability, T/C [20] was 0.39%, the viability, T/C (second compound 3.16 µM, first compound 3.16 µM) was 0.32% and the viability, T/C (second compound 3.16 µM, first compound 10 µM) was 0.37%. The viability, T/C [21] was 1.12%, the viability, T/C [22] was 0.73% and the viability, T/C [23] was 0.33%. For the same compound, the viability, T/C [24] was 1.28%, the viability, T/C (second compound 10 µM, first compound 3.16 µM) was 0.43% and the viability, T/C (second compound 10 µM, first compound 10 µM) was 2.45%.
`CCc1c2c(nc3ccc(O)cc13)-c1cc3c(c(=O)n1C2)COC(=O)[C@]3(O)CC` + CN1CCN(c2cc(C(=O)Nc3cc4cc(-c5cnn(C)c5)ccc4cn3)ccn2)CC1 showed an IC50 (second compound 0.0316 µM) of 4.23 nM, an IC50 (second compound 0.1 µM) of under 3.16 nM and an IC50 (second compound 0.316 µM) of under 3.16 nM. For the same compound, the IC50 (second compound 1 µM) was under 3.16 nM, the IC50 (second compound 3.16 µM) was under 3.16 nM and the IC50 (second compound 10 µM) was under 3.16 nM. It also gave a viability, T/C (second compound 0.0316 µM, first compound 0.00316 µM) of 61.9%, a viability, T/C (second compound 0.0316 µM, first compound 0.01 µM) of 14.1% and a viability, T/C [1] of 11.2%. The viability, T/C [2] was 5.5%, the viability, T/C [3] was 3.03% and the viability, T/C [4] was 2.59%. The viability, T/C (second compound 0.1 µM, first compound 0.00316 µM) was 24.7%, the viability, T/C (second compound 0.1 µM, first compound 0.01 µM) was 12.1% and the viability, T/C [5] was 7.5%. For the same compound, the viability, T/C [6] was 4.65%, the viability, T/C [7] was 3.59% and the viability, T/C [8] was 1.4%. The viability, T/C (second compound 0.316 µM, first compound 0.00316 µM) was 5.85%, the viability, T/C (second compound 0.316 µM, first compound 0.01 µM) was 5.41% and the viability, T/C [9] was 5.45%. For the same compound, the viability, T/C [10] was 1.97%, the viability, T/C [11] was 0.54% and the viability, T/C [12] was 0.17%. The viability, T/C (second compound 1 µM, first compound 0.00316 µM) was 1.09%, the viability, T/C (second compound 1 µM, first compound 0.01 µM) was 0.16% and the viability, T/C [13] was 0.3%. For the same compound, the viability, T/C [14] was 0.23%, the viability, T/C [15] was 0.15% and the viability, T/C [16] was 0.33%. For the same compound, the viability, T/C (second compound 3.16 µM, first compound 0.00316 µM) was 0.33%, the viability, T/C (second compound 3.16 µM, first compound 0.01 µM) was 0.52% and the viability, T/C [17] was 0.44%. The viability, T/C [18] was 0.3%, the viability, T/C [19] was 0.46% and the viability, T/C [20] was 0.23%. The viability, T/C (second compound 10 µM, first compound 0.00316 µM) was 0.38%, the viability, T/C (second compound 10 µM, first compound 0.01 µM) was 0.17% and the viability, T/C [21] was 0.26%. It also gave a viability, T/C [22] of 2.2%, a viability, T/C [23] of 2.67% and a viability, T/C [24] of 0.19%.
